In US20100222284A1, “COMPOSITION FOR INHIBITING THE ONSET OF ARTERIOSCLEROSIS AND INHIBITION METHOD” (priority 2004, published 2010):

How the values were obtained:
[1] = Basic safety tests (mutagenicity, biodegradability, oral acute toxicity, primary skin irritation, primary eye irritation); details: biodegradability and three acute toxicity tests performed by a designated organization
Description: In the development of drugs, quasi drugs, foods and the like, the most important and the biggest hurdle is the verification of safety of a rare sugar as a novel substance. A mutagenicity test, a biodegradability test and three types of acute toxicity tests (an oral acute toxicity test, a primary skin irritation test and a primary eye irritation test) are defined as the most basic safety tests. A rare sugar is a monosaccharide that exists in nature even in a small amount, therefore, it can be predicted that it will be safe. However, it is necessary to perform verification precisely. We asked the designated organization to perform the basic safety tests for three types of rare sugars, D-psicose, D-allose and allitol among rare sugars.

CLA-1 promoter = CLA-1 promoter luciferase reporter gene activity in HepG2 cells; type: cell-based, human; details: HepG2, 24 hours; 2.8-22.4 mM D-glucose or 22.4 mM D-psicose
Description: Further, by integrating a 1200 by promoter region of the CLA-1 gene into a luciferase reporter gene, introducing the gene into a cell and measuring the luciferase activity, the transcriptional activity of CLA-1 was determined.
6. The transcriptional activity of CLA-1 was also examined. The luciferase reporter gene containing the CLA-1 promoter was introduced into HepG2 cells and the resulting HepG2 cells were cultured with 2.8 mM (lane 1), 5.6 mM (lane 2), 11.2 mM (lane 3), 22.4 mM (lane 4) D-glucose or 22.4 mM D-psicose for 24 hours and the luciferase activity was measured. A high concentration of D-glucose inhibited the activity of the CLA-1 promoter.

SMILES | basic safety tests [1] | activity of the CLA-1 promoter (luciferase activity) (CLA-1 promoter)
O=C[C@H](O)[C@H](O)[C@H](O)[C@H](O)CO [D-allose] | there are not any problems in the safety | –
O=C[C@H](O)[C@@H](O)[C@H](O)[C@H](O)CO [D-glucose, reference compound] | – | inhibited
O=C(CO)[C@H](O)[C@H](O)[C@H](O)CO [D-psicose] | there are not any problems in the safety | did not affect
OC[C@@H](O)[C@@H](O)[C@@H](O)[C@@H](O)CO [allitol] | there are not any problems in the safety | –
